From patent US20160220569A1, “CDK4/6 Inhibitor Dosage Formulations For The Protection Of Hematopoietic Stem And Progenitor Cells During Chemotherapy” (G1 Therapeutics, Inc., priority 2015, published 2016)
“And” between values parts separate entries of the source, which are not always exact repeats. Equal entries are not always repeated. Where two headings read alike, the source gives them in different places.

Assay: Topotecan PK following Compound 1 infusion
Type: in vivo, human
Experimental: Blood samples were obtained prior to dosing, at the end of the 30-minute infusion (EOI), and at 0.5, 1, 1.5, 2, 2.5, 4, 6, 8, and 24 hours after the end of infusion. Analysis of plasma concentration versus time data for calculation of standard pharmacokinetic (PK) parameters following intravenous infusion administration was conducted using Phoenix WinNonlin version 6.3 using a nominal infusion duration and scheduled blood sampling times. In Cohort 2 there were 3 subjects who received 1.25 mg/m^2 of topotecan once daily on Days 1 to 5. In Cohort 3 there were 4 subjects who received 0.75 mg/m^2 of topotecan once daily on Days 1 to 5.

[1] = Topotecan 0.75 mg/m^2 (Cohort 3) with Compound 1 200 mg/m^2, Day 1, Max
[2] = Topotecan 0.75 mg/m^2 (Cohort 3) with Compound 1 200 mg/m^2, Day 1, Min
[3] = Topotecan 0.75 mg/m^2 (Cohort 3) with Compound 1 200 mg/m^2, Day 1, individual subjects, monohydrochloride
[4] = Topotecan 0.75 mg/m^2 (Cohort 3) with Compound 1 200 mg/m^2, Day 4, Max
[5] = Topotecan 0.75 mg/m^2 (Cohort 3) with Compound 1 200 mg/m^2, Day 4, Min
[6] = Topotecan 0.75 mg/m^2 (Cohort 3) with Compound 1 200 mg/m^2, Day 4, individual subjects, monohydrochloride
[7] = Topotecan 1.25 mg/m^2 (Cohort 2) with Compound 1 200 mg/m^2, Day 1, Max
[8] = Topotecan 1.25 mg/m^2 (Cohort 2) with Compound 1 200 mg/m^2, Day 1, Min
[9] = Topotecan 1.25 mg/m^2 (Cohort 2) with Compound 1 200 mg/m^2, Day 1, individual subjects, monohydrochloride
[10] = Topotecan 1.25 mg/m^2 (Cohort 2) with Compound 1 200 mg/m^2, Day 4, Max
[11] = Topotecan 1.25 mg/m^2 (Cohort 2) with Compound 1 200 mg/m^2, Day 4, Min
[12] = Topotecan 1.25 mg/m^2 (Cohort 2) with Compound 1 200 mg/m^2, Day 4, individual subjects, monohydrochloride
[13] = Topotecan […]^2 (Cohort 1) with Compound 1 200 mg/m^2, Day 1, Max
[14] = Topotecan […]^2 (Cohort 1) with Compound 1 200 mg/m^2, Day 1, Min
[15] = Topotecan […]^2 (Cohort 1) with Compound 1 200 mg/m^2, Day 1, individual subjects, monohydrochloride
[16] = Topotecan […]^2 (Cohort 1) with Compound 1 200 mg/m^2, Day 4, Max
[17] = Topotecan […]^2 (Cohort 1) with Compound 1 200 mg/m^2, Day 4, Min

CC[C@@]1(O)C(=O)OCc2c1cc1n(c2=O)Cc2cc3c(CN(C)C)c(O)ccc3nc2-1.Cl [topotecan, (S)-10-[(dimethylamino)methyl]-4-ethyl-4,9-dihydroxy-1H-pyrano[3′,4′:6,7]indolizino[1,2-b]quinoline-3,14(4H,12H)-dione monohydrochloride]
AUC24.5 [1]: 118 ng·h/mL | AUCx5 [1]: 78600 nM·min | Cmax [1]: 38.5 ng/mL | t½ [1]: 4.70 h | AUCinf (Topotecan 0.75 mg/m^2 (Cohort 3) with Compound 1 200 mg/m^2, Day 1, Max, monohydrochloride): 120 h*ng/mL and 15700 min*nM | AUC24.5 [2]: 75.0 ng·h/mL | AUCx5 [2]: 49700 nM·min | Cmax [2]: 17.9 ng/mL | t½ [2]: 4.04 h | AUCinf (Topotecan 0.75 mg/m^2 (Cohort 3) with Compound 1 200 mg/m^2, Day 1, Min, monohydrochloride): 75.9 h*ng/mL and 9950 min*nM | AUC24.5 [3]: 75.0 ng·h/mL and 118 ng·h/mL and 94.7 ng·h/mL | AUCinf [3]: 75.9 h*ng/mL and 9950 min*nM and 120 h*ng/mL and 15700 min*nM and 96.8 h*ng/mL and 12700 min*nM | AUCx5 [3]: 49700 nM·min and 78600 nM·min and 63400 nM·min | Cmax [3]: 20.8 ng/mL and 17.9 ng/mL and 38.5 ng/mL and 32.0 ng/mL | t½ [3]: 4.04 h and 4.27 h and 4.70 h | Cmax [4]: 30.7 ng/mL | t½ [4]: 5.07 h | AUCτ (Topotecan 0.75 mg/m^2 (Cohort 3) with Compound 1 200 mg/m^2, Day 4, Max, monohydrochloride): 112 h*ng/mL and 14700 min*nM | Cmax [5]: 18.4 ng/mL | t½ [5]: 4.63 h | AUCτ (Topotecan 0.75 mg/m^2 (Cohort 3) with Compound 1 200 mg/m^2, Day 4, Min, monohydrochloride): 74.4 h*ng/mL and 9740 min*nM | AUCτ [6]: 74.4 h*ng/mL and 9740 min*nM and 99.7 h*ng/mL and 13100 min*nM and 112 h*ng/mL and 14700 min*nM | Cmax [6]: 18.4 ng/mL and 30.7 ng/mL and 22.6 ng/mL | t½ [6]: 5.07 h and 4.68 h and 4.73 h | AUC24.5 [7]: 247 ng·h/mL | AUCx5 [7]: 166000 nM·min | Cmax [7]: 94.1 ng/mL | t½ [7]: 5.09 h | AUCinf (Topotecan 1.25 mg/m^2 (Cohort 2) with Compound 1 200 mg/m^2, Day 1, Max, monohydrochloride): 254 h*ng/mL and 33300 min*nM | AUC24.5 [8]: 120 ng·h/mL | AUCx5 [8]: 80400 nM·min | Cmax [8]: 39.3 ng/mL | t½ [8]: 4.78 h | AUCinf (Topotecan 1.25 mg/m^2 (Cohort 2) with Compound 1 200 mg/m^2, Day 1, Min, monohydrochloride): 123 h*ng/mL and 16100 min*nM | AUC24.5 [9]: 247 ng·h/mL and 120 ng·h/mL | AUCx5 [9]: 106000 nM·min and 166000 nM·min and 80400 nM·min | Cmax [9]: 94.1 ng/mL and 39.3 ng/mL | t½ [9]: 5.09 h and 4.92 h | Cmax [10]: 104 ng/mL | t½ [10]: 5.97 h | AUCτ (Topotecan 1.25 mg/m^2 (Cohort 2) with Compound 1 200 mg/m^2, Day 4, Max, monohydrochloride): 231 h*ng/mL and 30300 min*nM | Cmax [11]: 33.1 ng/mL | t½ [11]: 4.98 h | AUCτ (Topotecan 1.25 mg/m^2 (Cohort 2) with Compound 1 200 mg/m^2, Day 4, Min, monohydrochloride): 124 h*ng/mL and 16300 min*nM | AUCτ [12]: 231 h*ng/mL and 30300 min*nM and 124 h*ng/mL and 16300 min*nM | Cmax [12]: 104 ng/mL and 33.1 ng/mL | t½ [12]: 5.97 h and 4.98 h | AUC24.5 [13]: 169 ng·h/mL | AUCx5 [13]: 112000 nM·min | Cmax [13]: 98.8 ng/mL | t½ [13]: 4.56 h | AUCx5 [14]: 86600 nM·min | Cmax [14]: 40.2 ng/mL | t½ [14]: 4.11 h | AUCinf (Topotecan […]^2 (Cohort 1) with Compound 1 200 mg/m^2, Day 1, Min, monohydrochloride): 17300 nM·min | AUC24.5 [15]: 169 ng·h/mL | AUCx5 [15]: 112000 nM·min | t½ [15]: 4.11 h | Cmax [16]: 122 ng/mL | t½ [16]: 5.11 h | Cmax [17]: 56.5 ng/mL | t½ [17]: 4.64 h | AUCτ (Topotecan […]^2 (Cohort 1) with Compound 1 200 mg/m^2, Day 4, Min, monohydrochloride): 18800 nM·min | t½ (Topotecan […]^2 (Cohort 1) with Compound 1 200 mg/m^2, Day 4, individual subjects, monohydrochloride): 4.64 h | AUC (human, plasma, intravenous, Topotecan 0.75 mg/m^2 (Cohort 3) with Compound 1 200 mg/m^2, Day 1, Mean, read-out: AUC24.5): 92.8 ng·h/mL | AUC(0-inf) (human, plasma, intravenous, Topotecan 0.75 mg/m^2 (Cohort 3) with Compound 1 200 mg/m^2, Day 1, Mean, read-out: AUCinf (converted)): 94.4 ng·h/mL and 0.207 µM·h | AUC (human, plasma, intravenous, Topotecan 0.75 mg/m^2 (Cohort 3) with Compound 1 200 mg/m^2, Day 1, Mean, read-out: AUCx5 (converted)): 1.03 µM·h
